Experiment [1] concerns the target T1, mHcCBP1 (Haemonchus contortus, UniProt A0A7I4Z8W6).
T1 construct: native signal peptide replaced by CD5 signal; C-terminal His tag; secreted from FreeStyle 293-F cells; Ni-NTA purified
Kind of experiment: ovine fibrinogen degradation, SDS-PAGE. The note with it: 10 and 50 uM E-64, 15 min pre-incubation, PBS pH 7.4, 37 °C, 16 h; irreversible, covalent. It counts as biochemical.

In experiment [2] the target is T2, mHcCP1c (Haemonchus contortus, UniProt A0A7I4XTV4).
T2 construct: native signal peptide replaced by CD5 signal; C-terminal His tag; secreted from FreeStyle 293-F cells; Ni-NTA purified
Nature of the experiment: ovine fibrinogen degradation, SDS-PAGE. It counts as biochemical. The note with it: 10 and 50 uM E-64, 15 min pre-incubation, PBS pH 7.4, 37 °C, 16 h; irreversible, covalent.

Molecules are shown by their SMILES.

T2 sequence (A0A7I4XTV4 entry or part of it): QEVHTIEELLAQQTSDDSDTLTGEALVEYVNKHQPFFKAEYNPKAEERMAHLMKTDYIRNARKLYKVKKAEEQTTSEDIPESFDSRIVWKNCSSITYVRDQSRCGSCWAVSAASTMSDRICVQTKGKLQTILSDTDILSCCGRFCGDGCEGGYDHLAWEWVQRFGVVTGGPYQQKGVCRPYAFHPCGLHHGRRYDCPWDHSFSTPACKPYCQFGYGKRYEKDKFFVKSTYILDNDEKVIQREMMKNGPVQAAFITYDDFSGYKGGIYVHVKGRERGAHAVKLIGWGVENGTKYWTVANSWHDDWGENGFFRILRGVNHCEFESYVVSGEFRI
T1 sequence (A0A7I4Z8W6 entry or part of it): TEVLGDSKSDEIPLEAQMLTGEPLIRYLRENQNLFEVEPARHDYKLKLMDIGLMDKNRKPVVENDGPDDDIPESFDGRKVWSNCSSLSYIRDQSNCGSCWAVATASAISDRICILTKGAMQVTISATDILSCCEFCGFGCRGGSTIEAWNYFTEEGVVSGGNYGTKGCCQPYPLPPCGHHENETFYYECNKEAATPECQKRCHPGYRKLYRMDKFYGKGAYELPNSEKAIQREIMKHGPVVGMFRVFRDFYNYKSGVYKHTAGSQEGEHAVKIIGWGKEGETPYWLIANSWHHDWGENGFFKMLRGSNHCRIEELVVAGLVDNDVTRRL

For the molecule `CC(C)C[C@H](NC(=O)[C@H]1O[C@@H]1C(=O)O)C(=O)NCCCCN=C(N)N` [E-64, L-trans-epoxysuccinyl-leucyl-amido (4-guanidino) butane], the “ovine fibrinogen degradation, SDS-PAGE” value in experiment [1] is reported as “ablation of the fibrinogenolytic activities of mHcCBP1, mHcCP1c (Figure 7A)”; in experiment [2], “ablation of the fibrinogenolytic activities of mHcCBP1, mHcCP1c (Figure 7A)”.

For the origin of these results see publication PMC12732675, “Catalytically Active Recombinant Cysteine Proteases of Haemonchus contortus: Their Ability to Degrade Host Blood Proteins and Modulate Coagulation” (International Journal of Molecular Sciences, 2025).
